Reference: PMC9138545, “Incorporation of Oxidized Phenylalanine Derivatives into Insulin Signaling Relevant Proteins May Link Oxidative Stress to Signaling Conditions Underlying Chronic Insulin Resistance” (Biomedicines, 2022)
Values belong to the molecule of their own block, whether it stands above or below them.

How the values were obtained:
acute insulin resistance = details: ref [6]; cited from earlier work
Text: Acute insulin resistance induced by tumor necrosis factor alpha (TNFα) or dexamethasone could be ameliorated by the antioxidants N-acetylcysteine, manganese (III) tetrakis (4-benzoicacid) porphyrin (MnTBAP), or by induction of antioxidant enzymes such as superoxide dismutase or catalase.

[1] = system: patients (chronic insulin resistance); details: chronic antioxidant therapy, e.g., in diabetic neuropathy; ref [7]; cited from earlier work
Text: Moreover, using the so-called “breakthrough” therapy, a 2–4 week decrease in glucotoxicity is able to normalize glycemia by decreasing insulin resistance for months or years. Because clinical insulin resistance can be reverted, it is not an alteration of the DNA, but rather some type of protein abnormality; this can be hypothesized given the background of this oxidative stress-induced clinical condition.

type 2 diabetic patients = details: ref [40]; cited from earlier work
Text: Elevated levels of m- and/or o-Tyr have been described in the vascular wall of cynomolgus monkeys as well as in cataract lenses.

[2] = system: human PTP1B catalytic domain (1–299 aa); test: PTP1B dephosphorylation assay, capillary electrophoresis; assay type: biochemical; details: 80 μM phosphopeptide, 25 nM PTP1B, 50 mM TRIS, 150 mM NaCl, 1 mM EDTA, 2 mM DTT, pH 7.4
Protocol: The cDNA segment encoding the human PTP1B catalytic domain (1–299 aa) was PCR amplified from a HEK293T cDNA pool and inserted into the pBH4 vector with BamHI and NotI restriction sites. This construct is only missing the C-terminal flexible region and the membrane binding segment of PTP1B. The protein was expressed with an N-terminal hexa-histidine tag. Recombinant active PTP1B was expressed in the Escherichia coli BL21 (DE3) bacterial strain. Briefly, cells were grown in an ampicillin-containing LB medium at 37 °C to OD = 0.6 and then cooled down to 18 °C and induced by the addition of 0.05 mM isopropyl-beta-D-thiogalactoside (IPTG). After an overnight expression at 18 °C, the pellet was harvested and washed with phosphate buffered saline (PBS). Following freezing at −80 °C, cells were lysed in an appropriate buffer (300 mM NaCl, 50 mM phosphate, 10 mM imidazole, 2 mM beta-mercapto-ethanol, 0.1% IGEPAL with pH = 8.0, and 0.5 mM benzamidine with 0.5 mM PMSF protease inhibitors added) with the help of sonification. The lysate was centrifuged at 20,000 rpm for 30 min and the supernatant (~30 mL) was mixed with 1 mL Ni-NTA resin slurry (50%). After 45 min incubation at 4 °C, the mixture was transferred to gravity columns and washed with 10-10 mL of imidazole (40 mM imidazole, 300 mM NaCl, 50 mM phosphate, pH = 8.0 with 2 mM beta-mercapto-ethanol) and high salt (1000 mM NaCl, 20 mM imidazole, 20 mM TRIS, pH = 8.0 with 2 mM beta-mercapto-ethanol) containing wash buffers, each. PTP1B was eluted by applying 5 mL elution buffer (400 mM imidazole, 200 mM NaCl, 10% glycerol, 20 mM TRIS, pH = 8.0, with 0.1% IGEPAL). The eluted protein was supplemented with tricarboxy-ethyl-phosphine (TCEP) reducing agent at 2 mM concentration.
The Ni-NTA purified PTP1B protein was further purified by anion exchange chromatography. […]
Background electrolyte (BGE) components phosphoric acid and triethylamine were purchased from Sigma (St. Louis, MO, USA) and from Merck GmbH (Darmstadt, Germany), respectively. […] On-line absorption at 200 nm was monitored by DAD UV-Vis detector. […]

[3] = biological target: T1, C-terminal SH2 domain of PI3K regulatory subunit 1 (Homo sapiens, UniProt P27986); test: Fluorescence polarization binding, PI3K-SH2(C); details: competitive FP; statement for the SH2 domains
T1 construct: The N- and C-terminal SH2 domains (regions 321–433 and 614–724, respectively) of the PI3K regulatory subunit; hexa-histidine (inferred: expressed and purified like His-tagged PTP1B); made in house; host or cells: Escherichia coli (bacterial expression vector; strain BL21 (DE3) is stated only for PTP1B)
T1 sequence (P27986 614-724): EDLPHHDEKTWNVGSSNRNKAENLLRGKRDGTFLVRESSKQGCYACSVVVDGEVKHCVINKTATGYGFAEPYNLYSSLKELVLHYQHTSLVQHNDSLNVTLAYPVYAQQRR
Text: The N- and C-terminal SH2 domains (regions 321–433 and 614–724, respectively) of the PI3K regulatory subunit were subcloned into a bacterial expression vector by PCR and then similarly expressed and purified as described above.
For in vitro fluorescence polarization (FP)-based affinity measurements, a peptide containing the phosphorylated tyrosine residue 632 of human IRS1 was labelled by lys-carboxyfluorescenine at its C-terminal end (GRKGSGD(pY)MPMSPKS(K-FITC). Synthesis of the labelled peptide was done by GenScript Inc. For competitive FP measurements, unlabeled peptides with either natural (para-phospho-Tyr) or unnatural (ortho-phospho-Tyr and meta-phospho-Tyr) phosphorylated amino acids (core sequence GRKGSGD(pY)MPMSPKV in all three cases) were used. Direct titration with the labelled peptide was done by generating a dilution series of the protein (N-terminal and C-terminal SH2 domains of PI3K regulatory subunit 1), with a constant (100 nM) peptide concentration in a standard buffer (100 mM NaCl, 20 mM TRIS pH = 8.0, 0.05% Brij-35 detergent). Competitive titrations were done by keeping the concentration of the protein-labelled peptide mixture constant (150 nM and 1500 nM C-terminal and N-terminal domain, respectively, with 100 nM labelled peptide) and varying the concentration of the unlabeled competitor peptide instead. […]

Molecule: O=C(O)c1ccc(-c2c3nc(c(-c4ccc(C(=O)O)cc4)c4ccc([n-]4)c(-c4ccc(C(=O)O)cc4)c4nc(c(-c5ccc(C(=O)O)cc5)c5ccc2[n-]5)C=C4)C=C3)cc1.[Mn+3] [MnTBAP, manganese (III) tetrakis (4-benzoicacid) porphyrin]
acute insulin resistance induced by TNFα or dexamethasone (acute insulin resistance): ameliorated

Molecule: CC(=O)N[C@@H](CS)C(=O)O [N-acetylcysteine]
acute insulin resistance induced by TNFα or dexamethasone (acute insulin resistance): ameliorated

Molecule: O=C(O)CCCCC1CCSS1 (stereo not drawn) [alpha-lipoic acid]
chronic insulin resistance [1]: able to improve chronic insulin resistance

Molecule: Oc1ccc(/C=C/c2cc(O)cc(O)c2)cc1 [resveratrol]
insulin resistance (type 2 diabetic patients): improvement in insulin resistance
urinary excretion of o-Tyr (type 2 diabetic patients): decrease in urinary excretion of o-Tyr

binding affinity compared to phospho-para-Tyr peptide (GRKV2), PI3K-SH2(C) [3]: greatly reduced binding affinity
Molecule: GRKGSGDF(2-PO4H2)MPMSPKV [GRKV6, phospho-ortho-Tyr containing IRS-1 YXXM motif peptide]
dephosphorylation by PTP1B [2]: incapable of dephosphorylating

binding affinity compared to phospho-para-Tyr peptide (GRKV2), PI3K-SH2(C) [3]: greatly reduced binding affinity
Molecule: GRKGSGDF(3-PO4H2)MPMSPKV [GRKV4, phospho-meta-Tyr containing IRS-1 YXXM motif peptide]
dephosphorylation by PTP1B [2]: incapable of dephosphorylating

Molecule: GRKGSGDF(4-PO4H2)MPMSPKV [GRKV2, phospho-para-Tyr containing IRS-1 YXXM motif peptide]
dephosphorylation by PTP1B [2]: apart from the p-Tyr peptide, none of the modified Tyr containing peptides could be dephosphorylated by PTP1B
